Source: patent US20260297060A1, “COMPOUNDS FOR THE DEGRADATION OF MUTANT BRAF” (C4 THERAPEUTICS, INC., priority 2023, published 2026)

Test system: A375 human melanoma xenografts
Experiment: In vivo therapeutic efficacy in A375 human melanoma xenografts (tumor volume, T/C, TGI), Example 14
Set-up: species or system human tumor in female BALB/c nude mice
Settings: for Tumor volume: mean ± SEM; for T/C / TGI: PG-D21
Method: Agents were tested in the A375 human melanoma xenografts. Compound 26 and Compound 141 were administered to BALB/c nude mice bearing A375 tumors from PG-DO and dosed via PO twice a day (BID) or third a day (TIP) or dosed P daily (QD) from PG-D. Dabrafenib was administered to BALB/c nude mice bearing A375 tumors from PG-D1 and dosed via P daily (QD). Compound 26 was dosed at 1.5 mg/kg (QD), 2 mg/kg (TID), 3 mg/kg (BID), 6 mg/kg (QD) and 10 mg/kg (BID) for 21 days. Compound 141 was dosed at 0.75 mg/kg (BID), 1 mg/kg (TID), 1.5 mg/kg (BID), 3 mg/kg (QD) and 5 mg/kg (BID) for 21 days. Dabrafenib was dosed at 100 mg/kg for 21 days. This study was non-GLP.
One hundred and thirty-eight female BALB/c nude Mus Musculus mice procured from Shanghai Lingchang Biological Science and Technology Co., LTD between the ages of six to eight weeks and with body weight between eighteen and twenty-two grams were used for the study. A spare mouse was also procured.
The A375 tumor cells were maintained in vitro in DMEM medium supplemented with 10% fetal bovine serum and 1% Penicillin-Streptomycin at 37° C. in an atmosphere of 5% CO2 in air. The tumor cells were routinely sub-cultured twice weekly. The cells growing in an exponential growth phase were harvested and counted for tumor inoculation.
Each mouse was inoculated subcutaneously at the right flank with A375 cells (5×10^6) in 0.2 mL of PBS supplemented with Matrigel (PBS: Matrigel=1:1) for tumor development. Animals were grouped for efficacy study on day 15 after tumor inoculation when the average tumor volume reached 220 mm^3. The test articles administration and the animal numbers in each group are shown in the above experimental Table 75.
At the time of routine monitoring, the animals were checked daily for any effects of tumor growth and treatments on normal behavior such as mobility, food and water consumption (by looking only), body weight gain/loss (body weights were measured twice weekly), eye/hair matting and any other abnormal effect as stated in the protocol. Death and observed clinical signs were recorded on the basis of the numbers of animals within each subset.
Prior to the onset of drug treatment, mice were measured for tumor size in two dimensions using a caliper, and the tumor volume (mm^3) was calculated using formula V=0.5 a×b^2 where a and b are the long and short diameters of the tumor in mm, respectively. Mice were randomized into different treatment groups based on the tumor volume.
The major endpoint was to see if the tumor growth could be delayed or mice could be cured. The tumor size was then used for calculations of T/C value. The T/C value (in percent) is an indication of antitumor effectiveness; T and C are the mean volumes of the treated and control groups, respectively on specified day.
TGI was calculated for each group using the formula: TGI (%)=[1−(Ti−T0)/(Ci−C0)]×100; Ti is the average tumor volume of a treatment group on a given day, T0 is the average tumor volume of the treatment group on the day of treatment start, Ci is the average tumor volume of the vehicle control group on the same day with Ti, and C0 is the average tumor volume of the vehicle group on the day of treatment start.
A one-way ANOVA followed by Dunnett's multiple comparison test was performed to compare tumor volume among vehicle group (Group 1) and treatment groups (Group 2-Group 12). All data were analyzed using GraphPad Prism, ns indicates p>0.05, * indicates p<0.05, ** indicates p<0.01, *** indicates p<0.001 and **** indicates p<0.0001.
Tumor growth inhibition of Compound 26, Compound 141 and dabrafenib in the treatment of female BALB/c nude mice bearing A375 xenografts was calculated based on tumor volume measured on […]. TGI and T/C were calculated respectively and the data are detailed in Table 82.

[1] = Compound 26, 1.5 mg/kg p.o. BID × 21 days

CCN(C)S(=O)(=O)Nc1ccc(F)c(Oc2ccc3ncn([C@H]4COC5(CCN(C6CC7(C6)CN(c6cc8c(cc6F)c(N6CCC(=O)NC6=O)nn8C)C7)CC5)C4)c(=O)c3c2)c1C#N [Compound 26, (3R)-3-[6-[2-cyano-3-[[ethyl(methyl)sulfamoyl]amino]-6-fluoro-phenoxy]-4-oxo-quinazolin-3-yl]-8-[2-[3-(2,4-dioxohexahydropyrimidin-1-yl)-5-fluoro-1-methyl-indazol-6-yl]-2-azaspiro[3.3]heptan-6-yl]-1-oxa-8-azaspiro[4.5]decane]
Tumor volume (3 mg/kg p.o. BID x 21 days, day 46 (dosing-free regrowth)): 1050 ± 191 mm^3 | Tumor volume (3 mg/kg p.o. BID x 21 days, day 49 (dosing-free regrowth)): 1328 ± 237 mm^3 | Tumor volume (3 mg/kg p.o. BID x 21 days, day 53 (dosing-free regrowth)): 1789 ± 341 mm^3 | Tumor volume (3 mg/kg p.o. BID x 21 days, day 56 (dosing-free regrowth)): 2242 ± 453 mm^3 | Tumor Size on PG-D21 (Mean ± SEM) (3 mg/kg p.o. BID × 21 days): 48 ± 9 mm^3 | T/C (3 mg/kg p.o. BID × 21 days): 2.5% | TGI (3 mg/kg p.o. BID × 21 days): 110.4% | Tumor volume (6 mg/kg p.o. QD x 21 days, day 0): 220 ± 16 mm^3 | Tumor volume (6 mg/kg p.o. QD x 21 days, day 4): 243 ± 16 mm^3 | Tumor volume (6 mg/kg p.o. QD x 21 days, day 7): 158 ± 10 mm^3 | Tumor volume (6 mg/kg p.o. QD x 21 days, day 11): 101 ± 7 mm^3 | Tumor volume (6 mg/kg p.o. QD x 21 days, day 14): 62 ± 4 mm^3 | Tumor volume (6 mg/kg p.o. QD x 21 days, day 18): 49 ± 7 mm^3 | Tumor volume (6 mg/kg p.o. QD x 21 days, day 21): 54 ± 13 mm^3 | Tumor volume (6 mg/kg p.o. QD x 21 days, day 25 (dosing-free regrowth)): 137 ± 74 mm^3 | Tumor volume (6 mg/kg p.o. QD x 21 days, day 28 (dosing-free regrowth)): 230 ± 109 mm^3 | Tumor volume (6 mg/kg p.o. QD x 21 days, day 32 (dosing-free regrowth)): 335 ± 129 mm^3 | Tumor volume (6 mg/kg p.o. QD x 21 days, day 35 (dosing-free regrowth)): 478 ± 161 mm^3 | Tumor volume (6 mg/kg p.o. QD x 21 days, day 39 (dosing-free regrowth)): 751 ± 185 mm^3 | Tumor volume (6 mg/kg p.o. QD x 21 days, day 42 (dosing-free regrowth)): 894 ± 208 mm^3 | Tumor volume (6 mg/kg p.o. QD x 21 days, day 46 (dosing-free regrowth)): 1363 ± 315 mm^3 | Tumor volume (6 mg/kg p.o. QD x 21 days, day 49 (dosing-free regrowth)): 1802 ± 396 mm^3 | Tumor volume (6 mg/kg p.o. QD x 21 days, day 53 (dosing-free regrowth)): 1863 ± 377 mm^3 | Tumor volume (6 mg/kg p.o. QD x 21 days, day 56 (dosing-free regrowth)): 2305 ± 461 mm^3 | Tumor Size on PG-D21 (Mean ± SEM) (6 mg/kg p.o. QD × 21 days): 54 ± 13 mm^3 | T/C (6 mg/kg p.o. QD × 21 days): 2.9% | TGI (6 mg/kg p.o. QD × 21 days): 110.0% | Tumor volume (10 mg/kg p.o. BID x 21 days, day 0): 220 ± 15 mm^3 | Tumor volume (10 mg/kg p.o. BID x 21 days, day 4): 126 ± 10 mm^3 | Tumor volume (10 mg/kg p.o. BID x 21 days, day 7): 65 ± 6 mm^3 | Tumor volume (10 mg/kg p.o. BID x 21 days, day 11): 42 ± 4 mm^3 | Tumor volume (10 mg/kg p.o. BID x 21 days, day 14): 26 ± 3 mm^3 | Tumor volume (10 mg/kg p.o. BID x 21 days, day 18): 20 ± 2 mm^3 | Tumor volume (10 mg/kg p.o. BID x 21 days, day 21): 17 ± 2 mm^3 | Tumor volume (10 mg/kg p.o. BID x 21 days, day 25 (dosing-free regrowth)): 17 ± 2 mm^3 | Tumor volume (10 mg/kg p.o. BID x 21 days, day 28 (dosing-free regrowth)): 29 ± 3 mm^3 | Tumor volume (10 mg/kg p.o. BID x 21 days, day 32 (dosing-free regrowth)): 62 ± 16 mm^3 | Tumor volume (10 mg/kg p.o. BID x 21 days, day 35 (dosing-free regrowth)): 112 ± 34 mm^3 | Tumor volume (10 mg/kg p.o. BID x 21 days, day 39 (dosing-free regrowth)): 253 ± 70 mm^3 | Tumor volume (10 mg/kg p.o. BID x 21 days, day 42 (dosing-free regrowth)): 357 ± 91 mm^3 | Tumor volume (10 mg/kg p.o. BID x 21 days, day 46 (dosing-free regrowth)): 550 ± 131 mm^3 | Tumor volume (10 mg/kg p.o. BID x 21 days, day 49 (dosing-free regrowth)): 711 ± 168 mm^3 | Tumor volume (10 mg/kg p.o. BID x 21 days, day 53 (dosing-free regrowth)): 1021 ± 215 mm^3 | Tumor volume (10 mg/kg p.o. BID x 21 days, day 56 (dosing-free regrowth)): 1128 ± 250 mm^3 | Tumor Size on PG-D21 (Mean ± SEM) (10 mg/kg p.o. BID × 21 days): 17 ± 2 mm^3 | T/C (10 mg/kg, p.o., BID × 21 days): 0.9% | TGI (10 mg/kg, p.o., BID × 21 days): 112.2% | minimal effective dose (A-375, po, tumor bearing mouse model, BID, read-out: maximally efficacious minimal dose (MED)): 3 mg/kg | Tumor Size on PG-D21 (Mean ± SEM) [1]: 400 ± 70 mm^3 | T/C [1]: 21.2% | TGI [1]: 89.2%
